Experiments:
PC-3 [1] = test: MTT antiproliferative assay; type: cell-based; conditions: Homo sapiens, PC-3, 24 h, read-out: IC50 (MTT)
FaDu = test: MTT antiproliferative assay; type: cell-based; conditions: Homo sapiens, 24 h, read-out: IC50 (MTT)
ODC mRNA = test: Real-time qPCR expression analysis; type: cell-based, human; conditions: GAPDH internal control
CAT D mRNA = test: Real-time qPCR expression analysis; type: cell-based, human; conditions: GAPDH internal control
A431 [2] = test: SRB antiproliferative assay; type: cell-based; conditions: Homo sapiens, A-431, 24 h, read-out: IC50 (SRB)
mTOR = mTOR quantification by ELISA in A431 cells; type: cell-based, human; conditions: A431, 100 µM, 24 h
[3] = tested on: panel of organ-specific human cancer and normal cell lines; test: Antiproliferative activity over the cell line panel; type: cell-based; conditions: read-out: IC50 range in all the tested assay systems
Acute oral toxicity = type: in vivo, Swiss albino mice; conditions: up to 1000 mg/kg body weight
COX-2 = molecular target: T1, COX-2 (Homo sapiens, UniProt P35354); test: COX-2 assay, cell-free; type: biochemical
T1 sequence (P35354 18-604): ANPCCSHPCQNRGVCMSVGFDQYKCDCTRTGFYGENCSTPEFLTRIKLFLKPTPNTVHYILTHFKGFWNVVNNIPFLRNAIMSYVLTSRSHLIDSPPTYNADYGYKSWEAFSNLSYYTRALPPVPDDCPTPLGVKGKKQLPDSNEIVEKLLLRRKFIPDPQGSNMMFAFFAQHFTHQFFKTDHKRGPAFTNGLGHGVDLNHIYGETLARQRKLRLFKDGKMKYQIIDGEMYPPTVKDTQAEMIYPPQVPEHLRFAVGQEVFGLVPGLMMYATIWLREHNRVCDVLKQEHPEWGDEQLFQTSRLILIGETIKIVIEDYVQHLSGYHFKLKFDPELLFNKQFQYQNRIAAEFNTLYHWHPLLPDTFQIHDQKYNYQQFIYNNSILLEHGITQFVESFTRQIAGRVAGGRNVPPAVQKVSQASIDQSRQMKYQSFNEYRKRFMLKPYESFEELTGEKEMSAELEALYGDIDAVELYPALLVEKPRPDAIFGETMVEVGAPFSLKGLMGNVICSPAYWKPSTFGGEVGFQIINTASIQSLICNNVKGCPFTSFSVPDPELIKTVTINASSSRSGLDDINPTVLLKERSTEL

A431 cells [4] = test: Mitochondrial membrane potential; type: cell-based, human; conditions: for total of FITC mean (Rh123): A431, flow cytometry
hyaluronidase = test: Hyaluronidase activity in EAC cells of treated mice; type: in vivo; conditions: 75 mg/kg bw, i.p.
K562 = test: Cell cycle analysis by flow cytometry; type: cell-based, human; conditions: K562, 24 h
A431 [5] = test: MTT antiproliferative assay; type: cell-based; conditions: Homo sapiens, A-431, 24 h, read-out: IC50 (MTT)
DHFR mRNA = test: Real-time qPCR expression analysis; type: cell-based, human; conditions: A549, with respect to control, GAPDH internal control
PC-3 [6] = test: Cell cycle analysis by flow cytometry; type: cell-based, human; conditions: PC-3, 24 h
A431 cells [7] = test: DCFH-DA ROS assay; type: cell-based, human; conditions: A431, highest concentration, 24 h, spectrofluorometer
human erythrocytes = test: Ex vivo osmotic fragility test; conditions: 100 μM
PC-3 [8] = test: NRU antiproliferative assay; type: cell-based; conditions: Homo sapiens, PC-3, 24 h, read-out: IC50 (NRU)
Cathepsin D (CATD) = Cathepsin D (CATD) (Homo sapiens, UniProt P07339); test: Cathepsin D assay, cell-free
A549 = test: Cell cycle analysis by flow cytometry; type: cell-based, human; conditions: A549, 24 h
[9] = MDA-MB-231, with respect to control

Sequence of Cathepsin D (CATD) (P07339 65-412): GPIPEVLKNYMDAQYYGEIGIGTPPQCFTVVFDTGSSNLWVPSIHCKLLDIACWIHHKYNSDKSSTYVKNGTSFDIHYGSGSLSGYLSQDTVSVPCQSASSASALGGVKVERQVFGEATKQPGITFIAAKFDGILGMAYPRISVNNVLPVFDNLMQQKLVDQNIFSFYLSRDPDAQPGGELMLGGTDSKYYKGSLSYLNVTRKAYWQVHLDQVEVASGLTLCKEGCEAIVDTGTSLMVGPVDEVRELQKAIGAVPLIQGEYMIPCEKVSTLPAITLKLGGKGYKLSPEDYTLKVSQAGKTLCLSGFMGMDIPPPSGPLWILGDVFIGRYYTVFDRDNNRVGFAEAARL

CC(C)[C@@H]1CC[C@@H](C)C[C@@H]1O [neomenthol, (+)-Neomenthol]
IC50 (PC-3 [1]): 20.1 ± 0.82 µM
IC50 (FaDu): 99.31 ± 0.59 µM
ODC mRNA expression level (ODC mRNA; A431, with respect to control): 1.15 fold change
ODC mRNA expression level (ODC mRNA; A549, with respect to control): 1.18 fold change
ODC mRNA expression level (ODC mRNA; FaDu, with respect to control): 1.08 fold change
ODC mRNA expression level (ODC mRNA; [9]): 1.05 fold change
ODC mRNA expression level (ODC mRNA; PC-3, with respect to control): 1.22 fold change
CAT D mRNA expression level (CAT D mRNA; A431, with respect to control): 1.19 fold change
CAT D mRNA expression level (CAT D mRNA; A549, with respect to control): 1.37 fold change
CAT D mRNA expression level (CAT D mRNA; FaDu, with respect to control): 1.31 fold change
CAT D mRNA expression level (CAT D mRNA; K562, with respect to control): 1.24 fold change
CAT D mRNA expression level (CAT D mRNA; [9]): 1.15 fold change
CAT D mRNA expression level (CAT D mRNA; PC-3, with respect to control): 1.35 fold change
IC50 (A431 [2]): 82.1 ± 1.97 µM
mTOR level (ng/mg of protein) (mTOR): 0.336 ± 0.108 ng/mg
IC50 [3]: 16.4 to 99.3 µM
acute oral toxicity outcome (Acute oral toxicity): safe and non-toxic
IC50 (COX-2): 81.01 ± 0.59 µM
total of FITC mean (Rh123) (A431 cells [4]; 10 µM): 3101 ± 1.41
total of FITC mean (Rh123) (A431 cells [4]; 100 µM): 2913 ± 1.41
percent decrease of mitochondrial membrane potential concerning control (A431 cells [4]; A431, highest concentration, 24 h, spectrofluorometer): 13.05 ± 2.6%
inhibition (modulation) of hyaluronidase activity in EAC cells of mice (hyaluronidase): up to 10%
cell cycle phase arrested (K562): arrest of the G0/G1 phase
IC50 (A431 [5]): 17.3 ± 6.49 µM
DHFR mRNA expression level (DHFR mRNA): 1.17 fold change
cell cycle phase arrested (PC-3 [6]): arrest of the G0/G1 phase
percent increase in the ROS level (A431 cells [7]): 20.45 ± 0.35%
toxicity to erythrocytes (osmotic fragility) (human erythrocytes): non-toxic to erythrocytes
IC50 (PC-3 [8]): 84.6 ± 1.81 µM
IC50 (Cathepsin D (CATD)): 30.4 ± 6.44 µM
cell cycle phase arrested (A549): G2/M phase

Source: article PMC8655237 (Journal of Advanced Research, 2021)
